From the supplement of paper PMC10949913 come the findings set out here.

Holding throughout (experiment): area under concentration-response curve (viability) (AUC (a.u.)); higher = less active
Holding throughout (settings): 48 h

The test system of experiment [1] is NCI-H295R. The essentials:
(§1)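 Three adrenocortical carcinoma cell lines were plated in 1,536-well plates at 500–1,000 cells/well in 5 µL medium, and 23 nL of each library compound was added at 11 concentrations. After 48 h, CellTiter-Glo was applied for 15 minutes at room temperature before luminescence was read. Each plate's signals were normalised to vehicle and empty-well controls. AC50 and area under the curve were taken from fitted concentration-response curves, with only inhibitory or non-responding curve classes retained.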

Experiment [2] deals with CU-ACC1. The essentials: as §1
Experiment [3] has as its system CU-ACC2. The gist of the method:
as §1

`C[C@]12CC[C@@H]3c4ccc(O)cc4CC[C@H]3[C@@H]1[C@@H](O)[C@@H](O)[C@@H]2O`: the entries for the “area under concentration-response curve” value in experiment [1], in experiment [2] and in experiment [3] were 520, 494 and 565, respectively.
The corresponding values for `CC(C)(C)C(=O)CN1C(=O)[C@H](NC(=O)Nc2cccc(C(=O)O)c2)CN(C2CCCCC2)c2ccccc21` are 559, 518 and 612.
Taken in the same sequence, the figures for `CC\1=C(C(=O)N(\C=C1)C2=CC=C(C=C2)C3=NC=CO3)/C4=CC5=CN=C(N)N=C5C=C4` were 574, 547 and 625.
Taken in the same sequence, the figures for `CCNCc1nc2c(N)nc3ccccc3c2n1CC(C)(C)O` were 516, 500 and 556.
Turning to `O=C(NCCCNc1nc(Nc2cccc(NC(=O)N3CCCC3)c2)ncc1I)c1cccs1`, the “area under concentration-response curve” value in experiment [1] amounted to 539; in experiment [2], 498; in experiment [3], 482.
Taken in the same sequence, the figures for `CCCCCCCCCC(=O)N[C@@H](Cc1c[nH]c2ccccc12)C(=O)N[C@H](CC(N)=O)C(=O)N[C@@H](CC(=O)O)C(=O)N[C@@H]1C(=O)NCC(=O)N[C@@H](CCCN)C(=O)N[C@@H](CC(=O)O)C(=O)N[C@H](C)C(=O)N[C@@H](CC(=O)O)C(=O)NCC(=O)N[C@H](CO)C(=O)N[C@@H]([C@@H](C)CC(=O)O)C(=O)N[C@@H](CC(=O)c2ccccc2N)C(=O)O[C@@H]1C` were 496, 485 and 606.
The corresponding values for `COC[C@@H](NC(C)=O)C(=O)NCc1ccccc1` are 560, 503 and 619.
Taken in the same sequence, the figures for `O[C@@H]1C\C(=C/C(O)C1O)C(O)=O` (stereo not given in full) were 581, 512 and 614.
In the case of `COC(=O)Nc1nc2cc(C(=O)c3ccc(F)cc3)ccc2[nH]1`, the “area under concentration-response curve” value in experiment [1] was 462; in experiment [2], 570; in experiment [3], 574.
The corresponding values for `CNC(=O)[C@H](Cc1ccccc1)NC(=O)[C@H](CC(C)C)[C@H](CSc1cccs1)C(=O)NO` are 560, 480 and 596.
Taken in the same sequence, the figures for `CC(=O)NC[C@H]1CN(c2ccc(N3CCOCC3)c(F)c2)C(=O)O1` were 612, 565 and 700.
In the case of `CN[C@@H]1Cc2cccc3[nH]c(=O)n(c23)C1`, the “area under concentration-response curve” value came to 590 in experiment [1], 576 in experiment [2] and 659 in experiment [3].
The corresponding values for `O=C(O)[C@@H](c1ccc(OCc2ccc3ccccc3n2)cc1)C1CCCC1` are 493, 454 and 561.
The corresponding values for `Cc1cc(/C=c2/sc3nc4ccccc4n3c2=O)c(C)n1-c1ccccc1` are 549, 569 and 625.
Taken in the same sequence, the figures for `O=C(NCC[S+](=O)([O-])c1ccc(C(F)(F)F)cn1)c1ccc(Cl)cc1` were 544, 520 and 580.
